# Source: ChEMBL document CHEMBL6153133, “Discovery of Diphenyl Ether Derivatives as Novel BKCa Channel Activators: Structure-Activity Relationship, Cryo-EM Complex Structures, and In Vivo Animal Studies” (J Med Chem, 2025)
# The source made the active and inactive calls. The calls are words filed in the database; no cut-off is given here.
# Tests used:
# [1] = system: Calcium-activated potassium channel subunit alpha-1 (Homo sapiens), Q12791 [UNDEFINED MUTATION]; test: Activation of hyperactive human BKca channel G803D/N806K mutant transfected in human AD-293 cells assessed as maximum relative fluorescence value at 5 uM preincubated for 15 mins followed by Tl+ stimulus buffer addition and measured after 80 sec by Flexstation3 multimode microplate reader analysis relative to control; type: cell-based; conditions: time 980.0 sec
# [2] = AUClast in male Sprague-Dawley rat at 10 mg/kg, po by LC-MS/MS analysis; type: ADME, organism-based; conditions: in vivo
# [3] = Half-life in male Sprague-Dawley rat at 10 mg/kg, po by LC-MS/MS analysis; type: ADME, organism-based; conditions: in vivo
# [4] = Toxicity in male spontaneous hypertensive rat model at 100 mg/kg, po; type: organism-based; conditions: in vivo
# [5] = Cmax in male Sprague-Dawley rat at 10 mg/kg, po by LC-MS/MS analysis; type: ADME, organism-based; conditions: in vivo
# Rattus norvegicus [6] = test: Reversal of urinary incontinence in male spontaneous hypertensive rat model assessed as decrease in urine volume at 100 mg/kg, po measured after 3 hrs relative to control; type: functional; design: scale not given: the % may be the effect or the level left
# [7] = Tmax in male Sprague-Dawley rat at 10 mg/kg, po by LC-MS/MS analysis; type: ADME, organism-based; conditions: in vivo
# Rattus norvegicus [8] = test: Reversal of urinary incontinence in male spontaneous hypertensive rat model assessed as decrease in urine frequency at 100 mg/kg, po measured after 3 hrs relative to control; type: functional; design: scale not given: the % may be the effect or the level left
# [9] = biological target: Calcium-activated potassium channel subunit alpha-1 (Homo sapiens, UniProt Q12791, G803D/N806K); test: (§1) Activation of hyperactive human BKca channel G803D/N806K mutant transfected in human AD-293 cells incubated for 15 mins by Flexstation3 multimode microplate reader analysis; type: cell-based
# [10] = system: Calcium-activated potassium channel subunit alpha-1 (Homo sapiens), Q12791 [UNDEFINED MUTATION]; test: Activation of hyperactive human BKca channel G803D/N806K mutant transfected in human AD-293 cells assessed as maximum relative fluorescence value at 1 uM preincubated for 15 mins followed by Tl+ stimulus buffer addition and measured after 80 sec by Flexstation3 multimode microplate reader analysis relative to control; type: cell-based; conditions: time 980.0 sec
# [11] = Volume of distribution at steady state in male Sprague-Dawley rat at 10 mg/kg, iv by LC-MS/MS analysis; type: ADME, organism-based; conditions: in vivo, read-out: Vdss
# [12] = Clearance in male Sprague-Dawley rat at 10 mg/kg, iv by LC-MS/MS analysis; type: ADME, organism-based; conditions: in vivo
# [13] = Oral bioavailability in male Sprague-Dawley rat at 10 mg/kg by LC-MS/MS analysis; type: ADME, organism-based; conditions: in vivo
# [14] = AUClast in male Sprague-Dawley rat at 10 mg/kg, iv by LC-MS/MS analysis; type: ADME, organism-based; conditions: in vivo
# [15] = Half-life in male Sprague-Dawley rat at 10 mg/kg, iv by LC-MS/MS analysis; type: ADME, organism-based; conditions: in vivo
# [16] = Metabolic stability in human liver microsomes assessed as parent compound remaining at 1 uM preincubated for 5 mins followed by NADPH addition and measured after 30 mins by LC-MS/MS analysis; type: ADME, Microsome; conditions: read-out: Stability
# [17] = Metabolic stability in human liver microsomes assessed as parent compound remaining at 1 uM preincubated for 15 mins followed by UDPGA addition and measured after 60 mins by LC-MS/MS analysis; type: ADME, Microsome; conditions: time 75 min, read-out: Stability
# [18] = Metabolic stability in rat liver microsomes assessed as parent compound remaining at 1 uM preincubated for 5 mins followed by NADPH addition and measured after 30 mins by LC-MS/MS analysis; type: ADME, Microsome; conditions: read-out: Stability
# [19] = Metabolic stability in rat liver microsomes assessed as parent compound remaining at 1 uM preincubated for 15 mins followed by UDPGA addition and measured after 60 mins by LC-MS/MS analysis; type: ADME, Microsome; conditions: time 75 min, read-out: Stability
# [20] = biological target: T1, Calcium-activated potassium channel subunit alpha-1 (Homo sapiens, UniProt Q12791); test: Activation of BKca channel (unknown origin) by cell based method
# [21] = biological target: T1, Calcium-activated potassium channel subunit alpha-1; test: Activation of BKca channel (unknown origin) by cell-based fluorescence assay
# [22] = system: Calcium-activated potassium channel subunit alpha-1 (Homo sapiens), Q12791 [UNDEFINED MUTATION]; test: as §1; type: cell-based
# [23] = Activation of rat BKca channel extracted from Xenopus laevis Oocytes by patch-clamp electrophysiology recordings; type: cell-based; conditions: Oocyte
# [24] = Permeability of compound at pH 7.4 measured after 4 hrs by GIT-PAMPA assay; type: ADME; conditions: read-out: permeability
# Chain of Calcium-activated potassium channel subunit alpha-1 (Homo sapiens), Q12791 [UNDEFINED MUTATION] (Q12791 whole entry, looked up, stated change not applied): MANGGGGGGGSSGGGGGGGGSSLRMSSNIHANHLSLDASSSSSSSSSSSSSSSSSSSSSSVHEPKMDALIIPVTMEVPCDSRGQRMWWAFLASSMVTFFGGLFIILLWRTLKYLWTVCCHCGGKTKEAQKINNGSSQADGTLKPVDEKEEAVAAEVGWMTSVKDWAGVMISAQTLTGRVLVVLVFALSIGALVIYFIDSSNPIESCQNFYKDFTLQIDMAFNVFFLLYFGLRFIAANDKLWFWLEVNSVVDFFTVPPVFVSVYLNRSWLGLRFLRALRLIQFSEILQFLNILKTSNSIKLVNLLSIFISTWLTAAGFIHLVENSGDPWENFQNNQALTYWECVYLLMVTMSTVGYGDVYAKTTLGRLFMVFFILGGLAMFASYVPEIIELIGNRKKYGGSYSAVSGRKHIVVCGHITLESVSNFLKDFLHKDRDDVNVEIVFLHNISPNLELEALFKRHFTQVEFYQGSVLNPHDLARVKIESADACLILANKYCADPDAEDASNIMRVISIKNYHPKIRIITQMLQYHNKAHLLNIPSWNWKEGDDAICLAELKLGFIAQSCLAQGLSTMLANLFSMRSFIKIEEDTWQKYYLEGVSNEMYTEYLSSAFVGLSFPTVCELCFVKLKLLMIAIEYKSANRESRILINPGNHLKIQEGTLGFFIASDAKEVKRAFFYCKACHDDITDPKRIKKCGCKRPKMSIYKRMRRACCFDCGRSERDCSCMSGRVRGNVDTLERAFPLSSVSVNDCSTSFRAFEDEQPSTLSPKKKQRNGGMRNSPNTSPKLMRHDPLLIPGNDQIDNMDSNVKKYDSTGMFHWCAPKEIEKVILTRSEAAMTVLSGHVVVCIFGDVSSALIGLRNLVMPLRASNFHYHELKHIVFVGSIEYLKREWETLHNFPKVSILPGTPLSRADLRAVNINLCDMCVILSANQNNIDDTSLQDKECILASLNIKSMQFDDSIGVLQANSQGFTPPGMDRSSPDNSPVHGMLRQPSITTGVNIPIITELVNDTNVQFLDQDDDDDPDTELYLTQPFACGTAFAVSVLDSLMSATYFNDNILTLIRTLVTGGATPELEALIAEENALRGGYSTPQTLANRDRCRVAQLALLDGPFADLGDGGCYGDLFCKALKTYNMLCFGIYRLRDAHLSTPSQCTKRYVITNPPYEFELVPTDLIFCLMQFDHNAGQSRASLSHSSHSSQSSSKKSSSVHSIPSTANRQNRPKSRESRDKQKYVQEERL
# Chain of Calcium-activated potassium channel subunit alpha-1 (Homo sapiens, UniProt Q12791, G803D/N806K) (Q12791 whole entry, looked up, stated change not applied): as above
# T1 sequence (Q12791 whole entry): as the sequence (Q12791 whole entry, looked up, stated change not applied) above
smiles,measurement,setting,value
Oc1ccc(Oc2ccc(Cl)c(Cl)c2)c(O)c1,Activity,[1],18.6%
Nc1ccc(Oc2c(F)c(F)c(C(F)(F)F)c(F)c2F)c(CO)c1,Activity,[1],37.9%
Fc1c(F)c(C(F)(F)F)c(F)c(F)c1Oc1ccc2[nH]cnc2c1,Activity,[1],1%
Cl.Cl.Oc1cc(NCCCCN2CCOCC2)ccc1Oc1c(F)c(F)c(C(F)(F)F)c(F)c1F,AUC(0-t),[2],223 ng·h/mL
same,half-life,[3],3.7 h
same,Activity,[4],Non-toxic
same,Cmax,[5],72.1 ng/mL
same,Activity,Rattus norvegicus [6],49.2%
same,Tmax,[7],0.7 h
same,Activity,Rattus norvegicus [8],43.2%
Oc1ccc(Oc2c(F)c(F)c(C(F)(F)F)c(F)c2F)c(O)c1,EC50,[9],680 nM
same,Activity,[1]; filed as opener,102%
same,Activity,[10]; filed as opener,81.3%
Oc1ccc(Oc2ccc(Cl)cc2)c(O)c1,Activity,[1],1.2%
COc1cc(N)ccc1Oc1c(F)c(F)c(C(F)(F)F)c(F)c1F.Cl,Vd,[11],3.5 L/kg
same,clearance,[12],25 mL/min/kg
same,AUC(0-t),[2],668 ng·h/mL
same,half-life,[3],6.4 h
same,bioavailability,[13],9.9%
same,AUC(0-t),[14],6260 ng·h/mL
same,Cmax,[5],182 ng/mL
same,half-life,[15],2.1 h
same,Tmax,[7],1.2 h
O=[N+]([O-])c1cc(O)ccc1Oc1c(F)c(F)c(C(F)(F)F)c(F)c1F,Activity,[1],0.1%
O=[N+]([O-])c1ccc(Oc2c(F)c(F)c(C(F)(F)F)c(F)c2F)c(O)c1,Activity,[1],19.3%
NCCCCNc1ccc(Oc2c(F)c(F)c(C(F)(F)F)c(F)c2F)c(O)c1,Activity,[1],18%
CNc1ccc(Oc2c(F)c(F)c(C(F)(F)F)c(F)c2F)c(O)c1,EC50,[9],420 nM
same,Activity,[1]; filed as opener,91.7%
same,"remaining at 0.5 h, 1 µM",[16],76%
same,"remaining at 1 h, 1 µM",[17],1.6%
same,"remaining at 0.5 h, 1 µM",[18],4%
same,"remaining at 1 h, 1 µM",[19],4.7%
same,Activity,[10]; filed as opener,91.7%
Oc1ccc(Oc2c(F)cc(C(F)(F)F)cc2F)c(O)c1,Activity,[1]; filed as opener,66.9%
Nc1ccc(Oc2c(F)c(F)c(C(F)(F)F)c(F)c2F)c(F)c1,EC50,[9],1370 nM
same,Activity,[1]; filed as opener,83%
same,"remaining at 0.5 h, 1 µM",[16],14.8%
same,"remaining at 0.5 h, 1 µM",[18],12.7%
same,Activity,[10],17.9%
CCNc1ccc(Oc2c(F)c(F)c(C(F)(F)F)c(F)c2F)c(O)c1,Activity,[1]; filed as opener,65.7%
NCCCCCNc1ccc(Oc2c(F)c(F)c(C(F)(F)F)c(F)c2F)c(O)c1,Activity,[1]; filed as opener,53.4%
Cc1cccc(NC(=O)c2sc(=S)n3c2[nH]c(=O)c2cc(Br)ccc23)c1,EC50,[20],2700 nM
same,EC50,[21],2700 nM
Oc1ccccc1Oc1c(F)c(F)c(Cl)c(F)c1F,Activity,[1],-2.7%
Nc1ccc(Oc2c(F)c(F)c(C(F)(F)F)c(F)c2F)c(OC(F)(F)F)c1,Activity,[1],33%
NCCNc1ccc(Oc2c(F)c(F)c(C(F)(F)F)c(F)c2F)c(O)c1,Activity,[1],3.3%
Oc1ccc(Oc2cccc(C(F)(F)F)c2)c(O)c1,Activity,[1],5.5%
Oc1ccc(Oc2c(F)c(F)c(Cl)c(F)c2F)cc1O,Activity,[1],4%
Nc1ccc(Oc2c(F)c(F)c(C(F)(F)F)c(F)c2F)cn1,Activity,[22],inactive
COc1cc(O)ccc1Oc1c(F)c(F)c(Cl)c(F)c1F,Activity,[22],inactive
Oc1ccc(Oc2cc(C(F)(F)F)cc(C(F)(F)F)c2)c(O)c1,Activity,[1]; filed as opener,99.3%
same,Activity,[10],23.7%
Oc1cc(NCCCCN2CCOCC2)ccc1Oc1c(F)c(F)c(C(F)(F)F)c(F)c1F [listing 1 of 2 here],EC50,[9],9220 nM
same,"remaining at 0.5 h, 1 µM",[16],91.2%
same,"remaining at 0.5 h, 1 µM",[18],62.5%
Nc1ccc(Oc2c(F)c(F)c(C(F)(F)F)c(F)c2F)c(N)c1,Activity,[1],10.3%
Oc1c(F)c(F)c(Cl)c(F)c1F,Activity,[22],inactive
NC(=O)c1ccc(Oc2c(F)c(F)c(C(F)(F)F)c(F)c2F)cc1,Activity,[22],inactive
Oc1ccc(Oc2cc(Cl)cc(Cl)c2)c(O)c1,Activity,[1]; filed as opener,61.5%
Oc1cc(NCCCCCN2CCOCC2)ccc1Oc1c(F)c(F)c(C(F)(F)F)c(F)c1F,EC50,[9],2820 nM
same,"remaining at 0.5 h, 1 µM",[16],96.9%
same,"remaining at 0.5 h, 1 µM",[18],30.7%
same,EC50,[23],970 nM
same,Papp at 4 h,[24],56.6 ×10⁻⁶ cm/s
COc1cc(N)ccc1Oc1c(F)c(F)c(C(F)(F)F)c(F)c1F,EC50,[9],1210 nM
same,"remaining at 0.5 h, 1 µM",[16],87.1%
same,"remaining at 1 h, 1 µM",[17],30%
same,"remaining at 0.5 h, 1 µM",[18],7.2%
same,"remaining at 1 h, 1 µM",[19],88.8%
same,Papp at 4 h,[24],73.6 ×10⁻⁶ cm/s
Oc1ccc(Oc2ccc(Cl)c(C(F)(F)F)c2)c(O)c1,Activity,[1]; filed as opener,74.7%
Oc1cc(NCCCCN2CCOCC2)ccc1Oc1c(F)c(F)c(C(F)(F)F)c(F)c1F [listing 2 of 2 here],Activity,[1],9.3%
Nc1ccc(Oc2c(F)c(F)c(C(F)(F)F)c(F)c2F)c(C(F)(F)F)c1,Activity,[1],38%
Nc1ccc(Oc2c(F)c(F)c(C(F)(F)F)c(F)c2F)nc1,Activity,[22],inactive
CCCNc1ccc(Oc2c(F)c(F)c(C(F)(F)F)c(F)c2F)c(O)c1,Activity,[1],28.1%
Oc1cccc(Oc2c(F)c(F)c(Cl)c(F)c2F)c1,Activity,[1],5%
CN(C)c1ccc(Oc2c(F)c(F)c(C(F)(F)F)c(F)c2F)c(O)c1,Activity,[1],10.2%
Oc1ccc(O)c(O)c1,Activity,[22],inactive
Nc1ccc(Oc2c(F)c(F)c(C(F)(F)F)c(F)c2F)cc1,Activity,[1]; filed as opener,86.8%
same,"remaining at 0.5 h, 1 µM",[16],7.4%
same,"remaining at 0.5 h, 1 µM",[18],18.6%
same,Activity,[10],18.1%
Fc1c(F)c(C(F)(F)F)c(F)c(F)c1Oc1ccc2[nH]ncc2c1,Activity,[1],1%
Fc1c(F)c(C(F)(F)F)c(F)c(F)c1Oc1ccc2[nH]ccc2c1,Activity,[1],1%
Nc1cc(O)ccc1Oc1c(F)c(F)c(C(F)(F)F)c(F)c1F,Activity,[1],4.7%
Oc1cc(O)cc(Oc2c(F)c(F)c(Cl)c(F)c2F)c1,Activity,[1],11.8%
Oc1ccc(Oc2c(F)c(F)c(Cl)c(F)c2F)cc1,Activity,[1],6.1%
COc1ccc(Oc2c(F)c(F)c(Cl)c(F)c2F)c(OC)c1,Activity,[22],inactive
COc1ccc(Oc2c(F)c(F)c(Cl)c(F)c2F)c(O)c1,Activity,[22],inactive
NCCCNc1ccc(Oc2c(F)c(F)c(C(F)(F)F)c(F)c2F)c(O)c1,Activity,[1],2.4%
NCc1ccc(Oc2c(F)c(F)c(C(F)(F)F)c(F)c2F)c(O)c1,Activity,[22],inactive
N#Cc1cc(N)ccc1Oc1c(F)c(F)c(C(F)(F)F)c(F)c1F,Activity,[1],8.1%
Oc1ccc(Oc2ccc(F)c(C(F)(F)F)c2)c(O)c1,Activity,[1],19.8%
Nc1ccc(Oc2c(F)c(F)c(C(F)(F)F)c(F)c2F)c(Cl)c1,Activity,[1]; filed as opener,75.2%
same,Activity,[10],5.3%
Oc1ccc(Oc2ccc(Cl)c(F)c2)c(O)c1,Activity,[1],8.1%
